Laboratory results: publication PMC11460631, “Inhibition of transient receptor potential vanilloid 3 channels by antimalarial hydroxychloroquine alleviates TRPV3-dependent dermatitis” (The Journal of Biological Chemistry, 2024)
One block for each compound: values may come before it.

Key:
C57BL/6J male mice = assay: Carvacrol-induced AD-like mouse model: skin appearance scores and H&E epidermal thickness; type: in vivo; settings: score of 0 to 4, topical, 5 days; for erythema score: 2% carvacrol alone or with HCQ 2 mg/ml or DXM 1 mg/ml
Protocol: (§1) We therefore generated a carvacrol-induced AD mouse model to test the effect of HCQ.
To investigate the effect of HCQ on carvacrol-induced dermatitis in animals, C57BL/6J male mice (aged 6 weeks) were obtained from the Animal Experimental Center of Hangzhou Medical College (Hangzhou, Zhejiang Province). Mice were housed and maintained in an environment with a 12-h light/dark cycle and a controlled temperature of 22.0 ± 2.0 °C. Food and water were accessible ad libitum. All the animal procedures were approved by the Institutional Animal Care & Use Committee of Zhejiang Center of Laboratory Animals (ZJCLA).
(§2) To generate an AD-like mice model, 2% carvacrol (dissolved in 30% ethanol solution) was topically smeared onto the mice dorsum 1 day after hair removal with a depilatory cream (Vetin Depilatory Cream). Mice received a topical administration of an equal volume (200 μl) of 2% carvacrol or in the presence of 2 mg/ml HCQ. […] After the application of carvacrol for 5 days, the external appearance of mice was photographed and then sampled. The external appearance was graded based on three aspects: thickness, erythema/bleeding, and dryness/desquamation, with severity assessed on a score of 0 to 4. The degree of thickness was measured by the thickness of the skin in H&E staining. Skin tissues were either fixed in 4% paraformaldehyde or placed in PBS buffer containing 1% protease inhibitor, facilitating subsequent steps of paraffin embedding or ELISA experiments.
Mice were sacrificed 24 h after the last dose of treatment. Mouse dorsal skin was removed with scissors and forceps before being fixed with 4% paraformaldehyde. Paraffin-embedded tissues were sectioned and stained with H&E. Pictures of stained sections were acquired with a Nikon Eclipse Ti-S microscope with a charge-coupled device camera (DS-Ri2, Nikon).

[1] = tested on: TNF-α, IL-6, IgE, IL-4 in mouse dorsal skin tissues; assay: Carvacrol-induced AD-like mouse model: inflammatory factors by ELISA; type: in vivo
Protocol: as §1, §2
Animal skin tissues were placed in PBS buffer containing 1% protease inhibitors, then homogenized, and centrifuged for supernatants. Cytokine concentrations of supernatants (IL-4, IL-6, TNF-α, and IgE) were measured using ELISA kits (Tsingke) according to the manufacturer's instructions. The absorption at 450 nm was measured by a microplate reader (Thermo Multiskan MK3).

TRPV3 [2] = target: T1, TRPV3 (Homo sapiens, UniProt Q8NET8); assay: Calcium imaging (Fluo-4/AM) of TRPV3-expressing HEK293T cells; type: cell-based
T1 construct: YFP or GFP; expressed in transfected cells; host or cells: HEK293T
T1 sequence (Q8NET8 1-790): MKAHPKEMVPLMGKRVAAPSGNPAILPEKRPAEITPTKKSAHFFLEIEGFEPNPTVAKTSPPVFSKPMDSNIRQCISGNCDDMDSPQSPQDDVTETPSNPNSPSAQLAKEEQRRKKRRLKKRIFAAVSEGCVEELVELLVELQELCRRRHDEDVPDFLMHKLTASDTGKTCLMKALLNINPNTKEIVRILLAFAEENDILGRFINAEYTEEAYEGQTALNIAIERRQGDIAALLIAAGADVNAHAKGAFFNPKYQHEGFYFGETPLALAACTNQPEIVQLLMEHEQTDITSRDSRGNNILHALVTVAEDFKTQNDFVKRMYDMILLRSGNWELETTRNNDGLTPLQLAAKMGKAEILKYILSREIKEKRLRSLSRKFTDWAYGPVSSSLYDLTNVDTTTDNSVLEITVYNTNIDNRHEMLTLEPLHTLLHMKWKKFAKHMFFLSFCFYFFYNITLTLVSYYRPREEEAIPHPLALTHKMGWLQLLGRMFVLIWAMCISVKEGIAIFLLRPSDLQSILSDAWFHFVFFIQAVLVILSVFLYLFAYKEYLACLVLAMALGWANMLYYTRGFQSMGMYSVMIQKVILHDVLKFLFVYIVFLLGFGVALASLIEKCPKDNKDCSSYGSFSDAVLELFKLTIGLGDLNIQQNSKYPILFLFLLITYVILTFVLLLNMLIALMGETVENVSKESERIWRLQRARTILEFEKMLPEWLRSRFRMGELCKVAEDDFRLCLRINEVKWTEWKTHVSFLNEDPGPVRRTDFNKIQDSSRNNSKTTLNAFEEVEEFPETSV
Protocol: (§3) HEK293T cells are cultured using Dulbecco's modified Eagle's medium containing 10% fetal bovine serum and 1% penicillin-streptomycin in a cell incubator with 5% CO2 at 37 °C. Plasmids of murine TRPV1, TRPV4, TRPM8, and human TRPV3, TRPA1 are labeled with YFP or GFP as indicators for subsequent electrophysiological recordings. Complementary DNA constructs of ion channels were transiently transfected with Lipofectamine 3000 (Invitrogen). And 12 to 18 h after transient transfection, electrophysiological recordings were performed.
Calcium imaging assays were performed as described previously ([37]). Transiently transfected HEK293 cells seeded on 25 mm coverslips were washed twice with an extracellular solution containing 140 mM NaCl, 5 mM KCl, 2 mM MgCl2, 2 mM CaCl2, 10 mM glucose, and 10 mM Hepes (pH 7.4), followed by incubation in 2 ml of extracellular solution supplemented with 2 μM Fluo-4/AM as a Molecular Probes at room temperature for 60 min. Fluorescence images of HEK293T cells were acquired with a Nikon Eclipse Ti2 microscope with an optiMOS charge-coupled device camera controlled by the Ocular Software ([…]; https://www.photometrics.com/products/ocular).

TRPV3 [3] = target: T1, TRPV3; assay: Whole-cell patch-clamp recordings of TRPV3 currents in transfected HEK293T cells; type: cell-based; settings: 1 mM agonist, whole-cell, n = 5 cells
Protocol: as §3
(§4) Patch-clamp recordings were carried out with a HEKA EPC10 amplifier controlled by PatchMaster software (HEKA; https://www.heka.com/products/products_main.html#soft_pm) ([36]). Patch pipettes were prepared from borosilicate glass and fire-polished to the resistance of 3 to 8 MΩ by P-97 puller for whole-cell recordings. For single-channel recordings, patch pipettes were fire-polished to a higher resistance of 6 to 10 MΩ. Both bath solution and pipette solution contained 130 mM NaCl, 10 mM glucose, 0.2 mM EDTA, and 3 mM Hepes and were adjusted to pH 7.2 to 7.4 with NaOH. Whole-cell recordings and single-channel recordings were performed at ± 80 mV. The current was sampled at 10 kHz and filtered at 2.9 kHz. All recordings were performed at room temperature (25 °C). A gravity-driven system (RSC-200, Bio-Logic) with freely rotated perfusion tubes was used for the perfusion of ligands. Bath and ligand solutions were delivered through separate tubes to minimize the mixing of solutions. Patch pipette holding cells were placed in front of the perfusion tube outlet for perfusion.
All data from whole-cell recordings were analyzed in Igor Pro (WaveMetrics). IC50 values were determined by fitting the Hill equation to concentration-response relationships. Data are shown as mean ± SEM. Statistical significance between two groups was conducted with an unpaired two-tailed t test, and statistical significance among multiple groups was conducted with one-way ANOVA using Dunnett’s multiple comparisons test or Tukey's post hoc test. Differences were regarded as statistically significant with ∗, p < 0.05; ∗∗, p < 0.01; ∗∗∗, p < 0.001; ∗∗∗∗, and p < 0.0001; N.S., no significance.

TRPV3 [4] = target: T1, TRPV3; assay: Single-channel recordings of TRPV3 in the inside-out configuration; type: cell-based; settings: 1 mM 2-APB alone, −80 mV
Protocol: as §3
as §4, with “perfusion. Igor Pro versions 5.05 and 9.05 (WaveMetrics; https://www.wavemetrics.com/products/igorpro) were used to analyze the data.” for “perfusion.”

[5] = DXM 1 mg/ml topical with 2% carvacrol

SMILES: C[C@@H]1C[C@H]2[C@@H]3CCC4=CC(=O)C=C[C@]4(C)[C@@]3(F)[C@@H](O)C[C@]2(C)[C@@]1(O)C(=O)CO [DXM, dexamethasone]
erythema score (C57BL/6J male mice): 2.83 ± 0.17 | effect on IL-6 and TNF-α [1, 5]: no significant effect | effect on serum IgE levels [1, 5]: reduces | IL-4 levels compared to the model group ([1]; mouse tissues, HCQ 2 mg/ml or DXM 1 mg/ml topical with 2% carvacrol): effectively reduced

SMILES: C[C@H](CCC(=O)O)C[C@H](C)C[C@H](C)C(=O)/C=C(\O)[C@H](C)C[C@H](C)C/C=C/[C@@H](C)[C@@H](O)[C@@H](C)[C@@H](O)C[C@@H]1CC[C@@](C)([C@H]2CC[C@@](C)([C@@H](C)O)O2)O1 [ionomycin]
calcium influx, area under the curve (AUC), positive control (TRPV3 [2]; 10 μM ionomycin): 41.59 ± 1.50

wash-off time constant of TRPV3 current (TRPV3 [3]): 4.05 ± 0.73 s | calcium influx, area under the curve (AUC) of 2-APB activation (TRPV3 [2]; 1 mM 2-APB alone): 22.92 ± 1.44 | TRPV3 channel open probability (Po) (TRPV3 [4]): 0.89 ± 0.06 | single-channel conductance (TRPV3 [4]): 90.69 ± 2.67 pS
SMILES: NCCOB(c1ccccc1)c1ccccc1 [2-APB, 2-aminoethoxydiphenylborate]

SMILES: Cc1ccc(C(C)C)cc1O [carvacrol]
wash-off time constant of TRPV3 current (TRPV3 [3]): 1.43 ± 0.38 s | dry desquamation score (C57BL/6J male mice; 2% carvacrol alone or with HCQ 2 mg/ml): 3.17 ± 0.31 | erythema score (C57BL/6J male mice): 3.67 ± 0.21
